Source: ChEMBL document CHEMBL1136573, “Condensed aromatic peptide family of microbial metabolites, inhibitors of CD28-CD80 interactions” (Bioorg Med Chem Lett, 2003)

Columns and labels:
[1] = Inhibition of CD28-CD80 interaction in the presence of fetal bovine serum (FBS)
[2] = target: T-cell surface glycoprotein CD4 (Homo sapiens, UniProt P01730); test: Inhibitory concentration against CD4-gp120 binding in the absence of fetal bovine serum (FBS); Range is 0.13-0.5 uM
[3] = Inhibition of CD28-CD80 interaction in the absence of fetal bovine serum (FBS)

| Structure (SMILES) | IC50 [1] [nM] | IC50 [2] [nM] | IC50 [3] [nM] |
| --- | --- | --- | --- |
| CN1C(=O)[C@@H](c2cc(Cl)c(O)c(Cl)c2)NC(=O)[C@@H]2NC(=O)[C@@H](c3cc(Cl)c(O)c(Cl)c3)NC(=O)[C@H](NC(=O)C(=O)c3cc(Cl)c(O)c(Cl)c3)Cc3c[nH]c4c(cccc34)-c3cc2cc(c3O)Oc2ccc(cc2)C[C@H]1C(=O)N[C@@H](C(=O)O)c1ccc(O)cc1 [CHLOROPEPTIN] | 380 | 130 | 10 |
| CN1C(=O)[C@@H](c2cc(Cl)c(O)c(Cl)c2)NC(=O)[C@@H]2NC(=O)[C@@H](c3cc(Cl)c(O)c(Cl)c3)NC(=O)[C@H](NC(=O)C(=O)c3cc(Cl)c(O)c(Cl)c3)Cc3c[nH]c4cc(ccc34)-c3cc2cc(c3O)Oc2ccc(cc2)C[C@H]1C(=O)N[C@@H](C(=O)O)c1ccc(O)cc1 [ISOCOMPLESTATIN] | 420 | 130 | 10 |
| CC(=O)CC(O)(C(=O)N[C@@H]1Cc2c[nH]c3cc(ccc23)-c2cc3cc(c2O)Oc2ccc(cc2)C[C@@H](C(=O)N[C@@H](C(=O)O)c2ccc(O)cc2)N(C)C(=O)[C@@H](c2cc(Cl)c(O)c(Cl)c2)NC(=O)[C@@H]3NC(=O)[C@@H](c2cc(Cl)c(O)c(Cl)c2)NC1=O)c1cc(Cl)c(O)c(Cl)c1 (some centres undefined) | 220 | 130 | 8 |
